Test results published in patent US10011571B2, “Preparation method for aromatic heterocyclic compound used as selective JAK3 and/or JAK1 kinase inhibitor and application of aromatic heterocyclic compound” (SHENZHEN CHIPSCREEN BIOSCIENCES, LTD., priority 2014, dated 2018).
pIC50: −log10 of the molar value.

Tests used:
JAK3 = JAK3 (Homo sapiens (Human), UniProt P52333); test: Eurofins IC50Profiler radiometric kinase assay, JAK3; assay type: biochemical; conditions: 9 semilog concentrations
From the text: A proportion of the compounds of the present invention are subjected to kinase profile screening (KinaseProfiler™)) and enzymatic inhibitory activity (IC50Profiler™)) assay by entrusting Eurofins company (http://www.eurofins.com). Besides the kinases in the JAK family, the kinases that have been screened for their activity also include most Group 3F and Group 4 kinases (ITK, BLK, TBK1, VEGFRs, ERBBs, etc.), and blood system related kinases (Zhang J. et al. 2009, Nat. Rev. Cancer., 9: 28-39). The concentration of the test compound for kinase profile screening is 1 μM, and a gradient of 9 semilog concentration gradients are used to determine IC50. Detection is carried out according to standard procedure of Eurofins Company. Briefly, according to the requirements of different kinase reactions, 0.2 μL test compound (50 μM, dissolved in dimethyl sulfoxide (DMSO)) is added to reaction buffer containing specific kinase (the buffer system containing 20 mM MOPS, 1 mM EDTA, 0.01% Brij-35, 5% Glycerol, 0.1% β-mercaptoethanol, 1 mg/mL BSA, or 50 mM TRIS, 0.1 mM EGTA, 0.1 mM Na3VO4, 0.1% β-mercaptoethanol, 1 mg/mL BSA, based on the type of kinase used). Subsequently, a kinase specific substrate at a final concentration of 50 μM (specific substrate used for specific kinase), 10 mM Mg Acetate and isotope-labeled γ-^33P ATP (radio-activity of about 500 cpm/pmol) are sequentially added to a total volume of 10 μL for the reaction system. After incubation at room temperature for 40 min, the reaction is terminated by adding 3% phosphoric acid solution. The mixture is then transferred to a filter-type low temperature spray dryer (P30 filtermat), and washed by 75 mM phosphoric acid solution for 3 times and by methanol once. After drying, radio-activity is detected. For specific procedure, see the standard procedure provided by Eurofins Company: http://www.eurofins.com/media/9724077/kinaseprofiler_assay_protocol_guide_eurofins_v64.pdf).

CTLL-2 cells = test: Cell growth activity assay (MTS), CTLL-2 cell model; assay type: cell-based, mouse; conditions: Mus musculus; for activity at 0.3 µM: CTLL-2, 300 nM, 24 h, read-out: CTLL-2 % growth rate @300 nM; for GI50: CTLL-2, 24 h
Summary of the method: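 Mouse IL-2-dependent T-cell line seeded ~20,000 cells/well, compounds added after 24 h at gradient concentrations (top 10 μM; CTLL-2 evaluation at 300 nM), cultured another 24 h. MTS/PMS added, 2 h at 37° C, absorbance 490 nm; inhibition vs DMSO control after negative-control background subtraction, GI50 calculated; triplicate.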

JAK3, sequence (P52333 whole entry, species assumed): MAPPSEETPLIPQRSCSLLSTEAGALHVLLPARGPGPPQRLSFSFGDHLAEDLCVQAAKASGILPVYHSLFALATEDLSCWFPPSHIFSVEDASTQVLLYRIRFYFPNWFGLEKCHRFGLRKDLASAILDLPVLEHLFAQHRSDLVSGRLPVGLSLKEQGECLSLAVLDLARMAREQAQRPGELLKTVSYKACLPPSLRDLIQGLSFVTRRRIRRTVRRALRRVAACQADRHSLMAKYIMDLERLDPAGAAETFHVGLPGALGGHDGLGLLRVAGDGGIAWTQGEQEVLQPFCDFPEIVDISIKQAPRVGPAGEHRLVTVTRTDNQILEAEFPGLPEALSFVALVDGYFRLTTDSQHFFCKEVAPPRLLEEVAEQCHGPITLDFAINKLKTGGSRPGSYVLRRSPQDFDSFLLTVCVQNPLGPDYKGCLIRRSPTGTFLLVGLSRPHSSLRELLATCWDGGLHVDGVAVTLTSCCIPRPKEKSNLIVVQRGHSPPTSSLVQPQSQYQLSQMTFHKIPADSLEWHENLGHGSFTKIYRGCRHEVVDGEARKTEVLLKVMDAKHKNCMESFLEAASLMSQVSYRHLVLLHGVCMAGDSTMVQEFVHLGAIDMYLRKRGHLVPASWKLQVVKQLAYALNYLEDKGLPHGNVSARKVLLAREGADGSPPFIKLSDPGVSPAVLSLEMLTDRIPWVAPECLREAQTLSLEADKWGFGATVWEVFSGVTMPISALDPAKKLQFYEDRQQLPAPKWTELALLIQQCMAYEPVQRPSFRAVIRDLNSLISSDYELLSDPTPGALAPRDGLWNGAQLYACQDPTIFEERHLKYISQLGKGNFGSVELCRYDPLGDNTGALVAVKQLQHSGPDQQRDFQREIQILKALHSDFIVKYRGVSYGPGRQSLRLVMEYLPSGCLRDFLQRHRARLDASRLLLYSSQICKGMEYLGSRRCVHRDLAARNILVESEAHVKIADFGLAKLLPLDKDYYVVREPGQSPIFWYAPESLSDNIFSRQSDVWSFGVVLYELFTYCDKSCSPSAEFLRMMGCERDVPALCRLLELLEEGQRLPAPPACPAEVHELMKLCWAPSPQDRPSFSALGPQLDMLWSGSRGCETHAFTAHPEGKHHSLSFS

Compound	pIC50 (JAK3)	activity at 0.3 µM (CTLL-2 cells)	GI50 (CTLL-2 cells)
C=CC(=O)N(C)c1cc(Nc2ncc(Cl)c(NCCCNC(=O)c3ccc(C#N)cc3)n2)ccc1F [Example 7, N-(3-(5-chloro-2-(4-fluoro-3-(N-methylacrylamido)phenylamino)pyrimidinyl-4-amino)propyl)-4-cyano-benzamide]	7.96	10%	116 nM
C=CC(=O)N(C)c1cc(Nc2ncc(Cl)c(NCCCNC(=O)c3ccc(C(F)(F)F)cc3)n2)ccc1F [Example 22, N-(3-(5-chloro-2-(4-fluoro-3-(N-methylacrylamido)phenylamino)pyrimidinyl-4-amino)propyl)-4-trifluoromethylbenzamide]	7.68	7%	249 nM
C=CC(=O)N(C)c1cc(Nc2ncc(Cl)c(NCCCNC(=O)c3ccc(F)cc3)n2)ccc1F [Example 23, N-(3-(5-chloro-2-(4-fluoro-3-(N-methylacrylamido)phenylamino)pyrimidinyl-4-amino)propyl)-4-fluorobenzamide]	7.96	4%	140 nM
